Laboratory results published in paper PMC8071193, “Dual-Target Compounds against Type 2 Diabetes Mellitus: Proof of Concept for Sodium Dependent Glucose Transporter (SGLT) and Glycogen Phosphorylase (GP) Inhibitors” (Pharmaceuticals, 2021).
Like-named read-outs stand apart in the source and are kept apart here.

Key:
SGLT2 = biological target: T1, SGLT2 (Homo sapiens, UniProt P31639); assay: SGLT2 inhibition, 2-NBDG glucose uptake in SGLT2-overexpressing TSA201 cells; format: cell-based
T1 construct: host or cells: TSA201 (Human Embryonal Kidney) cells, lentiviral transduction, puromycin selection
T1 sequence (P31639 1-672): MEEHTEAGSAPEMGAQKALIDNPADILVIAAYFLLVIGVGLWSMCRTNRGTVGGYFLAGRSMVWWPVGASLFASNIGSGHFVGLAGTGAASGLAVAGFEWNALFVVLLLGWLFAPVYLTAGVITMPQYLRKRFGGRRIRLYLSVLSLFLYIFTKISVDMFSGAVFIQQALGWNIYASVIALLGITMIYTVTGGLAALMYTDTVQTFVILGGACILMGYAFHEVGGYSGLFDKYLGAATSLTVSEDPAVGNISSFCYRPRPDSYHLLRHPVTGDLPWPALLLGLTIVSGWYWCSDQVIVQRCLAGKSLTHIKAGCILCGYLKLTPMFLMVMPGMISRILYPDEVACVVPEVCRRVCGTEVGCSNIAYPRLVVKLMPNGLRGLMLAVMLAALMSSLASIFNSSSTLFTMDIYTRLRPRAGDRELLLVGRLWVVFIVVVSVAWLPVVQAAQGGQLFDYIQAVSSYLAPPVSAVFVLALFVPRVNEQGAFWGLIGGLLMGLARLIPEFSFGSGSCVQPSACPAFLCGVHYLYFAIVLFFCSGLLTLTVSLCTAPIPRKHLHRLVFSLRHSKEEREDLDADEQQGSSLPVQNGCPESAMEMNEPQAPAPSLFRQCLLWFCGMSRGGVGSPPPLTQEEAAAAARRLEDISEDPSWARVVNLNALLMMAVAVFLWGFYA
Experimental: (§1) Cells (100,000 cells, TSA201) were plated into each well of a 24-well plate and incubated overnight at 37 °C. […] Two wells were treated only with hexadimetrine bromide as a control. After 24 h of transfection, the medium was changed to fresh medium without antibiotics. Cells were collected and transferred into T-25 flasks after 3 days. On the fifth day, 10 µg/mL puromycin was added to select only the transfected cells. The nontransfected cells cannot survive this high concentration of antibiotic. To keep up the selection, the medium including 10 µg/mL puromycin was replaced every two days. The cells lived under puromycin pressure until the day of the experiments.
(§2) TSA201 cells (25,000) with and without overexpressed SGLT1 or 2 were put into poly-L-lysine (P5999, Sigma-Aldrich, St. Luis, MO, USA) treated wells of a 96-well plate. The next day, the cells were starved for 1 h with 90 µL glucose-free medium (D5036-10X1L Sigma-Aldrich, St. Luis, MO, USA) (with or without inhibitor). After starving, cells were treated with 100 µM 2-NBDG and incubated for 30 min (again with or without inhibitor). The incubation time of cells with possible inhibitors was 90 min altogether. After incubation, the medium was removed, the wells were washed with PBS twice, lysed with 100 µL lysis buffer (0.1 M KH2PO4 + 1% Triton-x, pH = 11), and stored at -20°C. […] Subsequently, the protein concentration was measured and NBDG uptake was normalized to protein amount.
(§3) After selecting optimal concentrations, each compound was tested at four different concentrations. […] To determine the specific effects of the compounds on SGLT1 or 2, the glucose uptake values in TSA201 cells without SGLT overexpression were subtracted from the values in TSA201 cell overexpressing SGLT. […] All calculations were prepared using the GraphPad Prism software (GraphPad Software, Inc., SanDiego, CA, USA). The data were plotted on a logarithmic scale as a function of inhibitor concentration. The IC50 values were calculated by non-linear regression analysis from sigmoidal dose-response curves. The results of kinetic experiments were calculated from at least three independent experiments. Each experiment contained four parallel samples that were averaged. The standard deviations were calculated based on the average values for the independent experiments.

SGLT1 = biological target: T2, SGLT1 (Homo sapiens, UniProt P13866); assay: SGLT1 inhibition, 2-NBDG glucose uptake in SGLT1-overexpressing TSA201 cells; format: cell-based
T2 construct: host or cells: TSA201 (Human Embryonal Kidney) cells, lentiviral transduction, puromycin selection
T2 sequence (P13866 1-664): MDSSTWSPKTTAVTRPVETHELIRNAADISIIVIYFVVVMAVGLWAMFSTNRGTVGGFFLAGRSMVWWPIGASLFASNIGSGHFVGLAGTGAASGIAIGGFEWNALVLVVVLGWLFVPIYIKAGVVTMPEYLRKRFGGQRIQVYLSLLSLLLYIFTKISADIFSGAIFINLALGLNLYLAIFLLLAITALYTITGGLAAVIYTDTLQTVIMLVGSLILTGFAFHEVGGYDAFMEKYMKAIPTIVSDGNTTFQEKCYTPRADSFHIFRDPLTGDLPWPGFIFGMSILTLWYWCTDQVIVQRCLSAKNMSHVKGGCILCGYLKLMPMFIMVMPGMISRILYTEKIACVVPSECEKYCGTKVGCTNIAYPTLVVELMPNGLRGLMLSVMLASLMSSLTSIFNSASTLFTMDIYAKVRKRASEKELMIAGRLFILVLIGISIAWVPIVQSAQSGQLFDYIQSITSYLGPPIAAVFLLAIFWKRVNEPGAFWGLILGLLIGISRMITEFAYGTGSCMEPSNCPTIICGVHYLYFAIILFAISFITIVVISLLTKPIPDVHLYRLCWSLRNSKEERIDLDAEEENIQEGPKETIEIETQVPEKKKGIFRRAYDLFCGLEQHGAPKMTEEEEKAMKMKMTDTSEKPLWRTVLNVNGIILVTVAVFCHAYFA
Experimental: as §1, §2, §3

[1] = biological target: T3, rabbit muscle glycogen phosphorylase b (rmGPb) (Oryctolagus cuniculus, UniProt P00489); conditions: Table 3; NI: no inhibition at 625 µM; cited from earlier work
T3 construct: Glycogen phosphorylase b was isolated from rabbit skeletal muscle; from tissue; host or cells: rabbit skeletal muscle
T3 sequence (P00489 1-843): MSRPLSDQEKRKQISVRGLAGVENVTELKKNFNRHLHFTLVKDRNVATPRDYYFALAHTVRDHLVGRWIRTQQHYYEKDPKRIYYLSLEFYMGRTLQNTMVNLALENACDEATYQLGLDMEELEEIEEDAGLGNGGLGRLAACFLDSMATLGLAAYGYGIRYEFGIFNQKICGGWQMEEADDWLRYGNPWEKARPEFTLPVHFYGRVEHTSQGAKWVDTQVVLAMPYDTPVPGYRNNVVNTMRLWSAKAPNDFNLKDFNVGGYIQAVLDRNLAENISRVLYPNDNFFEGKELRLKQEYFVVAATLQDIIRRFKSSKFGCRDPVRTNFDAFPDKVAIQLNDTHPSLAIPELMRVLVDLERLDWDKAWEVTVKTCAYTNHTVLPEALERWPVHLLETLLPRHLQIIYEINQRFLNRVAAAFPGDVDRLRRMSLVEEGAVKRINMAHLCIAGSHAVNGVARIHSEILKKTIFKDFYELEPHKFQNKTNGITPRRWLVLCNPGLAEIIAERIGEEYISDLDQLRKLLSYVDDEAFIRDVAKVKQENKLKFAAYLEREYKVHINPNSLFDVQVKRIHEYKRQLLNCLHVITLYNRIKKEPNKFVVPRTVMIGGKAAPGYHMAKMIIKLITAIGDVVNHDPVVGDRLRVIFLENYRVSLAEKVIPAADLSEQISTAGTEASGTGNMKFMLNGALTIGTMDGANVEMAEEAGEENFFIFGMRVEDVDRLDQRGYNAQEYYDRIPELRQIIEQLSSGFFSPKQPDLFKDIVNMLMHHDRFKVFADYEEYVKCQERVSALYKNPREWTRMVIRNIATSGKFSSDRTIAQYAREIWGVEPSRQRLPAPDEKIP

[2] = test system: sodium dependent glucose cotransporter (SGLT2); parameters: method as in earlier work; conditions: ref 19 (1), 35 (2), 36 (3), 37 (4), 38 (5), 34 (6), cited from earlier work; for IC50: Table 1, read-out: IC50 against SGLT2; for selectivity SGLT2/SGLT1: Table 1, value in brackets
[3] = biological target: T3, rabbit muscle glycogen phosphorylase b (rmGPb); assay: Glycogen phosphorylase b enzyme kinetic inhibition assay (direction of glycogen synthesis); format: biochemical; conditions: Table 2; at 625 µM
Source text: The 2-NBDG (2-deoxy-2-[(7-nitro-2,1,3-benzoxadiazol-4-yl)amino]-D-glucose, cat. 11046) was purchased from Cayman Chemical Company (Ann Arbor, MI, USA). Lentivirus for SLC5A1 and SLC5A2 (NM_000343 for SGLT1, and NM-003041 for SGLT2) were obtained from Origene (Rockville, MD, USA). These expression vectors contain a puromycin resistance gene. […] CyQUANT^TM Cell Proliferation Assay Kit (2036547) was from Invitrogen (Carlsbad, CA, USA). Glycogen phosphorylase b was isolated from rabbit skeletal muscle according to the method of Fischer and Krebs.
Enzyme activity in the direction of glycogen synthesis was assayed. Kinetic data were collected using the muscle phosphorylase b (dephosphorylated, GPb) isoform. […] Enzymatic activities were presented in the form of a double-reciprocal plot (Lineweaver-Burk). The plots were analysed by a non-linear data analysis program. The inhibitor constants (Ki) were determined by secondary plots, replotting the slopes from the Lineweaver-Burk plot against the inhibitor concentrations. The means of standard errors for all calculated kinetic parameters averaged to less than 10% [78, 79].

[4] = Table 3, TSA-201 cells, NI: no inhibition at 1000 µM

| Compound | IC50 (SGLT2; [4]) [µM] | IC50 (SGLT1; [4]) [µM] | Ki [1] [µM] | IC50 [2] [µM] | selectivity SGLT2/SGLT1 [2] | further results |
| --- | --- | --- | --- | --- | --- | --- |
| OC[C@H]1O[C@@H](c2cn(-c3ccccc3)nn2)[C@H](O)[C@@H](O)[C@@H]1O [22a] | 9.1 ± 2.94 | 242 ± 37.9 | > 625 |  |  |  |
| OC[C@H]1O[C@@H](c2cn(-c3ccc4ccccc4c3)nn2)[C@H](O)[C@@H](O)[C@@H]1O [22b] | 111 ± 27.6 | 23.8 ± 5.72 | > 625 |  |  |  |
| O=C(CCc1ccc(O)cc1)c1c(O)cc(O)cc1O[C@@H]1O[C@H](CO)[C@@H](O)[C@H](O)[C@H]1O [compound 1, phlorizin] |  |  |  | 0.033 |  |  |
| Cc1ccc([C@@H]2O[C@H](CO)[C@@H](O)[C@H](O)[C@H]2O)cc1Cc1ccc(-c2ccc(F)cc2)s1 [compound 4, canagliflozin] |  |  |  | 0.0022 | 414 |  |
| OC[C@H]1O[C@@H](c2ccc(F)c(Cc3cc4ccccc4s3)c2)[C@H](O)[C@@H](O)[C@@H]1O [compound 5, ipragliflozin] |  |  |  | 0.0074 | 254 |  |
| OC[C@H]1O[C@@H](c2nc(Cc3ccccc3)c[nH]2)[C@H](O)[C@@H](O)[C@@H]1O [compound 18, 4(5)-Benzyl-2-(β-D-glucopyranosyl)imidazole] |  |  |  |  |  | IC50 (SGLT2): 3.57 ± 0.42 µM; times more effective (SGLT2 inhibition) (SGLT2; compared to 1,2,4-triazole 19a): ~ 20 times; IC50 (SGLT1): 11.7 ± 2.48 µM; inhibition at 625 µM [3]: 12% |
